Where a name gives a salt, the structure may show the parent alone.
Experiments:
NaV1.6 [1] = molecular target: T1, NaV1.6 (Homo sapiens (Human), UniProt Q9UQD0); assay: Sodium Influx Assay (Flux), NaV1.6; details: read-out: Flux NaV1.6 IC50; Trex HEK293 cells, ANG2 dye; arithmetic mean
NaV1.5 = NaV1.5 (Homo sapiens (Human), UniProt Q14524); assay: Sodium Influx Assay (Flux), NaV1.5; details: read-out: Flux NaV1.5 IC50; Trex HEK293 cells, ANG2 dye; arithmetic mean
NaV1.1 [2] = molecular target: T2, NaV1.1 (Homo sapiens (Human), UniProt P35498); assay: Electrophysiological Assay (EP), patch voltage clamp, NaV1.1; format: cell-based; details: HEK-293 cells, whole-cell patch clamp, inactivated state; arithmetic mean
Protocol: (§1) Sodium currents were measured using the patch clamp technique in the whole-cell configuration using either a PatchXpress automated voltage clamp or manually using an Axopatch 200B (Axon Instruments) or Model 2400 (A-M systems) amplifier.
In some studies, the external sodium was reduced by equimolar replacement with choline. […] All recordings were performed at ambient temperature in a bath chamber with a volume of 150 μL. Control sodium currents were measured in 0.5% DMSO. Controls and representative compounds of the invention were applied to the recording chamber through a 4-pinch or 8-pinch valve bath perfusion system manufactured by ALA Scientific Instruments.
Series resistance compensation was applied (60-80%). […] All statistics in this study are given as mean±SD.
The membrane potential was maintained at a voltage where inactivation of the channel is complete. The voltage is then stepped back to a very negative (Vhold=−150 mV) voltage for 20 ms and then a test pulse is applied to quantify the compound block. […] The percent decrease in sodium current following wash-on of compound was taken as the percent block of sodium channels.

NaV1.6 [3] = molecular target: T1, NaV1.6; assay: Electrophysiological Assay (EP), patch voltage clamp, NaV1.6; format: cell-based; details: HEK-293 cells, whole-cell patch clamp, inactivated state; arithmetic mean
Excerpt: Patch voltage clamp electrophysiology allows for the direct measurement and quantification of block of voltage-gated sodium channels (Nay's), and allows the determination of the time-and voltage-dependence of block which has been interpreted as differential binding to the resting, open, and inactivated states of the sodium channel (Hille, B., Journal of General Physiology (1977), 69: 497-515).
NaV1.1, NaV1.5 and NaV1.6 cDNAs (NM_001165964 (SCN1A), NM_000335 (SCN5A) and NM_014191 (SCN8A), respectively) were stably expressed in HEK-293 cells.
as §1
The manual voltage clamp protocol was as follows: Borosilicate glass micropipettes were fire-polished to a tip diameter yielding a resistance of 2-4 Mohms in the working solutions. […] In some studies, the external sodium was reduced by equimolar replacement with choline. Osmolarity in the CsF internal and NaCl external solutions was adjusted to 300 mOsm/kg and 310 mOsm/kg with glucose, respectively. All recordings were performed at ambient temperature in a bath chamber with a volume of 150 μL. Control sodium currents were measured in 0.5% DMSO. Controls and representative compounds of the invention were applied to the recording chamber through a 4-pinch or 8-pinch valve bath perfusion system manufactured by ALA Scientific Instruments.
Currents were recorded at 40 kHz sampling frequency, filtered at […], and stored using a Digidata-1322A analogue/digital interface with the pClamp software (Axon Instruments). Series resistance compensation was applied (60-80%). […] All statistics in this study are given as mean±SD.
The membrane potential was maintained at a voltage where inactivation of the channel is complete. The voltage is then stepped back to a very negative (Vhold=−150 mV) voltage for 20 ms and then a test pulse is applied to quantify the compound block. The 20 ms brief repolarization was long enough for compound-free channels to completely recover from fast inactivation, but the compound-bound channels recovered more slowly such that negligible recovery could occur during this interval. The percent decrease in sodium current following wash-on of compound was taken as the percent block of sodium channels.

NaV1.1 [4] = molecular target: T2, NaV1.1; assay: Sodium Influx Assay (Flux), NaV1.1; format: cell-based; details: Trex HEK293 cells, ANG2 dye; arithmetic mean

NaV1.5, sequence (Q14524 other isoform, or with tags, fused parts or gaps): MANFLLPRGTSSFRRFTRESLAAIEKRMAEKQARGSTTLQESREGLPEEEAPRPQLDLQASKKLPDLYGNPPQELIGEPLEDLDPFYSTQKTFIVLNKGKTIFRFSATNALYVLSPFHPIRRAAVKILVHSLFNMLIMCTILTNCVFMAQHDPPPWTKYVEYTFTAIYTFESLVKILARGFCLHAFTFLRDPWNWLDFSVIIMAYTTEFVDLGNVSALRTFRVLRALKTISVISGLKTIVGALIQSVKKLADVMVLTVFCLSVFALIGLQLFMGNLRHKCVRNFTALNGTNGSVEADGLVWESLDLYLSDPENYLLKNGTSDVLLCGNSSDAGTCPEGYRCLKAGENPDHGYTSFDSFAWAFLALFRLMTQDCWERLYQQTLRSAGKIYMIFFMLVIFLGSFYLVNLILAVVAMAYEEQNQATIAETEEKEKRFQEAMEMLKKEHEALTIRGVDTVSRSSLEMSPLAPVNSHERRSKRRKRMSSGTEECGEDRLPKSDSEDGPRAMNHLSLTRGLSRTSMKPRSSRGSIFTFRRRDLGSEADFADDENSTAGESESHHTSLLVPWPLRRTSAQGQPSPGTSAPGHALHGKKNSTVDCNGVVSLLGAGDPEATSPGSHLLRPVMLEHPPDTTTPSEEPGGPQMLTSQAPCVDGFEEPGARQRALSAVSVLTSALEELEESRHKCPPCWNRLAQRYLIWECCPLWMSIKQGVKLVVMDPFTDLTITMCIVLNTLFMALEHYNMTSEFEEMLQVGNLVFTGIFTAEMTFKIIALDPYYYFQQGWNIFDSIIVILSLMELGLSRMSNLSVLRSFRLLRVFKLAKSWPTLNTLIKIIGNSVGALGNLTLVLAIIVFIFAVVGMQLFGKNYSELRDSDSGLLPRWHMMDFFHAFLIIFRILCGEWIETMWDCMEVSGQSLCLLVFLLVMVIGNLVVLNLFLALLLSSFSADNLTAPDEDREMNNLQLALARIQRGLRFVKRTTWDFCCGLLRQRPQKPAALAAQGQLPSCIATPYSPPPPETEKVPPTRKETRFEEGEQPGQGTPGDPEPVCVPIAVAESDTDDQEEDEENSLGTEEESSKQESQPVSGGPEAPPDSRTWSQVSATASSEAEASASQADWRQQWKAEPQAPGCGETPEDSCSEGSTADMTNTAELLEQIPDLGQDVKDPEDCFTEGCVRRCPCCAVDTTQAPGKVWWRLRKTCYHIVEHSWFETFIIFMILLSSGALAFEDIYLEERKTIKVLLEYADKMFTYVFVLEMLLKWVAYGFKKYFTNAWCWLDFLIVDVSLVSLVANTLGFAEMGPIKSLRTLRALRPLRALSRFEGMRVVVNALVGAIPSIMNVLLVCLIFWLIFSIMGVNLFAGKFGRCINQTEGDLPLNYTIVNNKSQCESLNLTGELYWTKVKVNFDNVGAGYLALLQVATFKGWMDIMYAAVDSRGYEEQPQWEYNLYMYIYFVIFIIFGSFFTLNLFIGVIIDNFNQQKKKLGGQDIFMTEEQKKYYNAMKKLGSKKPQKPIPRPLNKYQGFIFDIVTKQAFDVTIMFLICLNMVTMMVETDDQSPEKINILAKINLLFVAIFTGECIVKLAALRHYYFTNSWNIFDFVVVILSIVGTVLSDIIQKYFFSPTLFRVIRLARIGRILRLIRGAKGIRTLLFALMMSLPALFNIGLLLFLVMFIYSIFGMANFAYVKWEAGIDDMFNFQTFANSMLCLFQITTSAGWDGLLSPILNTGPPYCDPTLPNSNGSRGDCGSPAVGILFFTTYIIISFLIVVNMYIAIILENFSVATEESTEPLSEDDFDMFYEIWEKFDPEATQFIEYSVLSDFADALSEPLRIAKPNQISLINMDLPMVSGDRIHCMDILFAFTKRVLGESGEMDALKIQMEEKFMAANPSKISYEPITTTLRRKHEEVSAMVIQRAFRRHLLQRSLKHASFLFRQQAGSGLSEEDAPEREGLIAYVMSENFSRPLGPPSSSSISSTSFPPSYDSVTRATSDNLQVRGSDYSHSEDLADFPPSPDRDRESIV
T1 sequence (Q9UQD0 whole entry): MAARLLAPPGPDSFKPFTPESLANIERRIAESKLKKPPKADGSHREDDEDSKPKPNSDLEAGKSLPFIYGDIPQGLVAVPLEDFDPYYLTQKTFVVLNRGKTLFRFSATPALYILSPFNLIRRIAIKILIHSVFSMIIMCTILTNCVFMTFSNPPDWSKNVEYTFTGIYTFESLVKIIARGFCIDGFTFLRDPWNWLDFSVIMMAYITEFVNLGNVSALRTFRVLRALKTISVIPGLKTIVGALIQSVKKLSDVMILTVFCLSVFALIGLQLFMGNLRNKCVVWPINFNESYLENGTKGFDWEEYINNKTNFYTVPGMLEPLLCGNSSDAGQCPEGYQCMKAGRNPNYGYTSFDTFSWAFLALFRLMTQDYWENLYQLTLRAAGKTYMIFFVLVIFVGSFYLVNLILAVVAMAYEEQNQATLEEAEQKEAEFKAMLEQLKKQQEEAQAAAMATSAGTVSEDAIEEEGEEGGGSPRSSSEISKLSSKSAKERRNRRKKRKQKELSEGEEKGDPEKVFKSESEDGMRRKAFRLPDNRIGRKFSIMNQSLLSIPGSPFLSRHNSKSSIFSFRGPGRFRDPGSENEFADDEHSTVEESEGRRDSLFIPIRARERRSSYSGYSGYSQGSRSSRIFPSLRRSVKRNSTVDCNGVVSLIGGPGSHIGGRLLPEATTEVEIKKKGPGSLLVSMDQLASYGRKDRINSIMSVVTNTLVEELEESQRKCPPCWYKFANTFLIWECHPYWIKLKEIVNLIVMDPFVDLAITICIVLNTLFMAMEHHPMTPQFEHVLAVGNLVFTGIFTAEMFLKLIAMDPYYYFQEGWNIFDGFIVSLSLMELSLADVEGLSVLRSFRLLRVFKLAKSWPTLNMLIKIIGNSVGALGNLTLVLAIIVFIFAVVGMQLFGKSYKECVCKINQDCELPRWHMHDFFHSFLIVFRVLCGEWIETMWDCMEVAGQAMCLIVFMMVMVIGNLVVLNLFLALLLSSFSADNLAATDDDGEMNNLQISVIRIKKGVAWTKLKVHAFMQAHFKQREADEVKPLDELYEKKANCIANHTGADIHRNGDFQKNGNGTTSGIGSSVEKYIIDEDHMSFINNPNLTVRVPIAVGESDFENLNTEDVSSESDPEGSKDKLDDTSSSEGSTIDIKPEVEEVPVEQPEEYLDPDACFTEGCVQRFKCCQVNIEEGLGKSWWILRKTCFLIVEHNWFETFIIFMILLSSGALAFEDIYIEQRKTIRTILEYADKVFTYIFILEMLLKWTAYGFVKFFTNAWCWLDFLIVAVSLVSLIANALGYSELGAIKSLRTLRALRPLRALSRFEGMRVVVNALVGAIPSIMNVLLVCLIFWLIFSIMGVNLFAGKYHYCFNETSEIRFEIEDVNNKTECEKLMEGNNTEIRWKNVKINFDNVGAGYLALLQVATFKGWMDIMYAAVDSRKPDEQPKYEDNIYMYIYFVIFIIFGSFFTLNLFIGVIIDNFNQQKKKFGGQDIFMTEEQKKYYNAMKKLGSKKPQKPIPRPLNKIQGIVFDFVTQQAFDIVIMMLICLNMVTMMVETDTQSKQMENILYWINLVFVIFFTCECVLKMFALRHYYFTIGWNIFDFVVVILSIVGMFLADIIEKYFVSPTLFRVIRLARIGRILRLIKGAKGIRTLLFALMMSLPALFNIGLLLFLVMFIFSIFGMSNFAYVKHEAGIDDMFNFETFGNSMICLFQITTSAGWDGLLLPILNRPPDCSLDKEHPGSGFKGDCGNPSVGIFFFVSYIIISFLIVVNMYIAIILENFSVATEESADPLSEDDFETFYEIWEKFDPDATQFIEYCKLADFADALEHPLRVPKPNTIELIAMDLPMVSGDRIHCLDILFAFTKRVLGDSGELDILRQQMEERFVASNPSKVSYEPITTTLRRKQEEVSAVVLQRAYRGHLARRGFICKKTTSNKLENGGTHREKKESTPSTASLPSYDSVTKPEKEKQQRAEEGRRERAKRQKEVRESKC

| SMILES | IC50 (NaV1.6 [1]) | IC50 (NaV1.1 [2]) | IC50 (NaV1.6 [3]) | IC50 (NaV1.1 [4]) | IC50 (NaV1.5) |
| --- | --- | --- | --- | --- | --- |
| C[C@H]1CN(Cc2ccccc2)C[C@@H]1Nc1ccc(S(=O)(=O)Nc2nccs2)cc1Cl (relative stereo) [Example 74, 4-((trans-1-benzyl-4-methylpyrrolidin-3-yl)amino)-3-chloro-N-(thiazol-2-yl)benzenesulfonamide] | 0.167 µM | 1.03 µM | 0.025 µM | 1.54 µM | 8.67 µM |
| O=S(=O)(Nc1nccs1)c1ccc(O[C@@H]2C[C@H]3CC[C@@H](C2)N3Cc2ccccc2)c(Cl)c1 [Example 16, 4-(((1R,3s,5S)-8-benzyl-8-azabicyclo[3.2.1]octan-3-yl)oxy)-3-chloro-N-(thiazol-2-yl)benzenesulfonamide] | 0.429 µM | > 10 µM | 0.03 µM | 22.8 µM | > 30 µM |
| CC1(Nc2ccc(S(=O)(=O)Nc3nccs3)cc2Cl)CN(Cc2ccccc2)C1 [Example 25, 4-((1-benzyl-3-methylazetidin-3-yl)amino)-3-chloro-N-(thiazol-2-yl)benzenesulfonamide 2,2,2-trifluoroacetate] | 0.569 µM | > 10 µM | 0.138 µM | 5.76 µM | 24.7 µM |
| CN(c1ccc(S(=O)(=O)Nc2ncns2)cc1Cl)[C@H]1CCN(Cc2cc(Cl)ccc2F)C1 [Example 33, (S)-3-chloro-4-((1-(5-chloro-2-fluorobenzyl)pyrrolidin-3-yl)(methyl)amino)-N-(1,2,4-thiadiazol-5-yl)benzenesulfonamide 2,2,2-trifluoroacetate] | 0.041 µM | > 10 µM | 0.07 µM | 5.11 µM | 7.79 µM |
| C[C@H](c1ccccc1)N1CCC(Oc2ccc(S(=O)(=O)Nc3cscn3)cc2Cl)CC1 [Example 57, (R)-3-chloro-4-((1-(1-phenylethyl)piperidin-4-yl)oxy)-N-(thiazol-4-yl)benzenesulfonamide 2,2,2-trifluoroacetate] | 0.97 µM | > 10 µM | 0.268 µM | 13.7 µM | 5.25 µM |
| CC(C)(c1ccccc1)N1CCC(Oc2ccc(S(=O)(=O)Nc3nccs3)cc2Cl)CC1 [Example 59, 3-chloro-4-((1-(2-phenylpropan-2-yl)piperidin-4-yl)oxy)-N-(thiazol-2-yl)benzenesulfonamide 2,2,2-trifluoroacetate] | 0.255 µM | 9.91 µM | 0.092 µM | 7.44 µM | 7.44 µM |
| CC1(Nc2ccc(S(=O)(=O)Nc3nccs3)cc2Cl)CCN(Cc2ccccc2)C1 (stereo not drawn) [Example 61, 4-((1-benzyl-3-methylpyrrolidin-3-yl)amino)-3-chloro-N-(thiazol-2-yl)benzenesulfonamide] | 0.176 µM | > 10 µM | 0.137 µM | 6.37 µM | 6.96 µM |
| CN(c1ccc(S(=O)(=O)Nc2cscn2)cc1Cl)[C@H]1CCN(C(C)(C)c2ccccc2)C1 [Example 62, (S)-3-chloro-4-(methyl(1-(2-phenylpropan-2-yl)pyrrolidin-3-yl)amino)-N-(thiazol-4-yl)benzenesulfonamide] | 0.536 µM | 6.55 µM | 0.15 µM | 4.24 µM | 4.53 µM |
| Cc1c(OC2CCN([C@H](C)c3ccccc3)CC2)cc(F)c(S(=O)(=O)Nc2cscn2)c1F [Example 282, (R)-2,6-difluoro-3-methyl-4-((1-(1-phenylethyl)piperidin-4-yl)oxy)-N-(thiazol-4-yl)benzenesulfonamide 2,2,2-trifluoroacetate] | 0.005 µM |  | 0.005 µM | 17.3 µM | 23.9 µM |
| C[C@H](c1ccccc1)N1CCC(Oc2cc(F)c(S(=O)(=O)Nc3cscn3)c(F)c2)CC1 [Example 291, (R)-2,6-difluoro-4-((1-(1-phenylethyl)piperidin-4-yl)oxy)-N-(thiazol-4-yl)benzenesulfonamide 2,2,2-trifluoroacetate] | 0.578 µM |  | 0.447 µM | > 30 µM | > 30 µM |
| Cc1c(N(C)[C@H]2CCN(Cc3ccccc3)C2)cc(F)c(S(=O)(=O)Nc2ncns2)c1F [Example 295, (S)-4-((1-benzylpyrrolidin-3-yl)(methyl)amino)-2,6-difluoro-3-methyl-N-(1,2,4-thiadiazol-5-yl)benzenesulfonamide] | 0.009 µM |  | 0.001 µM | 17.1 µM | 25.9 µM |

The next lines start with results.

| IC50 (NaV1.6 [1]) | IC50 (NaV1.1 [2]) | IC50 (NaV1.6 [3]) | IC50 (NaV1.1 [4]) | SMILES | IC50 (NaV1.5) |
| --- | --- | --- | --- | --- | --- |
| 0.253 µM | 7.21 µM | 0.082 µM | 8.12 µM | O=S(=O)(Nc1nccs1)c1ccc(OC2CCN(Cc3cccc(C(F)F)c3)CC2)c(Cl)c1 [Example 11, 3-chloro-4-((1-(3-(difluoromethyl)benzyl)piperidin-4-yl)oxy)-N-(thiazol-2-yl)benzenesulfonamide] | 7.58 µM |
| 0.437 µM | 3.41 µM | 0.07 µM | 3.73 µM | CN(c1ccc(S(=O)(=O)Nc2nccs2)cc1Cl)[C@H]1CCN(Cc2cccc(Cl)c2)C1 [Example 27, (S)-3-chloro-4-((1-(3-chlorobenzyl)pyrrolidin-3-yl)(methyl)amino)-N-(thiazol-2-yl)benzenesulfonamide] | 6.9 µM |
| 0.221 µM | 4.21 µM | 0.036 µM | 3.23 µM | CN(c1ccc(S(=O)(=O)Nc2nccs2)cc1Cl)[C@H]1CCN(Cc2cccc(C(F)F)c2)C1 [Example 28, (S)-3-chloro-4-((1-(3-(difluoromethyl)benzyl)pyrrolidin-3-yl)(methyl)amino)-N-(thiazol-2-yl)benzenesulfonamide] | 5.73 µM |
| 0.615 µM | > 10 µM | 0.685 µM | > 30 µM | CCN(c1ccc(S(=O)(=O)Nc2ncns2)cc1Cl)[C@H]1CCN(Cc2ccccc2)C1 [Example 36, (S)-4-((1-benzylpyrrolidin-3-yl)(ethyl)amino)-3-chloro-N-(1,2,4-thiadiazol-5-yl)benzenesulfonamide] | > 30 µM |
| 3.25 µM | > 10 µM | 3.88 µM | 6.79 µM | CN(c1cc(F)c(S(=O)(=O)Nc2cccc(F)n2)cc1Cl)[C@H]1CCN(Cc2ccccc2)C1 [Example 40, (S)-4-((1-benzylpyrrolidin-3-yl)(methyl)amino)-5-chloro-2-fluoro-N-(6-fluoropyridin-2-yl)benzenesulfonamide bis(trifluoroacetic acid) salt] | 15.8 µM |
| 1.04 µM | > 10 µM | 0.748 µM | 6.64 µM | CN(c1ccc(S(=O)(=O)Nc2cscn2)cc1Cl)[C@H]1CCN(Cc2ccccc2)C1 [Example 41, (S)-4-((1-benzylpyrrolidin-3-yl)(methyl)amino)-3-chloro-N-(thiazol-4-yl)benzenesulfonamide 2,2,2-trifluoroacetate] | 9.01 µM |
| 0.1 µM | > 10 µM | 0.089 µM | 10.7 µM | C[C@H](c1ccccc1)N1CC[C@H](N(C)c2ccc(S(=O)(=O)Nc3nccs3)cc2Cl)C1 [Example 44, 3-chloro-4-(methyl((S)-1-((R)-1-phenylethyl)pyrrolidin-3-yl)amino)-N-(thiazol-2-yl)benzenesulfonamide] | > 30 µM |
